No end group written: not given here.
Key:
[1] = test system: Sclerotium rolfsii; experiment: IC50 growth inhibition; format: cell-based
[2] = test system: C. krusei spp; experiment: MIC90 growth inhibition; format: cell-based, Candida krusei; details: RPMI 1640 one-fourth strength
Description: (§1) The minimum inhibitory concentration (MIC) value is defined as the lowest sample concentration that inhibited growth. In the Examples, the MIC90 value is presented, which MIC90 values are determined according to established methods known to the person with the skills in the relevant art. Experiments; 1×10E5 CFU of various strains/ml were incubated for 24-48 h at 37° C. in 4× diluted medium of RPMI 1640 with the indicated concentrations of antimicrobial peptide hLF(1-11) [SEQ ID NO: 3]. As controls various strains cells were incubated for 24-48 h at 37° C. with no agent (antimicrobial peptide), and subsequently, growth of the microbial organism (e.g. yeast, bacterium) was monitored by using spectrophotometry with a spectrophotometer at 620 nm. […] ND=Not done. Representative single assay data are listed rather than a range, for clarity reasons and for ease of comparison of peptide efficacy. The MIC was calculated as the lowest antibiotic (antimicrobial peptide) concentration at which growth of the assessed yeast or bacterium (microbe) was inhibited (inhibitory concentration IC90).

[3] = test system: C. krusei CMC-2002; experiment: MIC90 growth inhibition; format: cell-based, Candida krusei; details: RPMI 1640 one-fourth strength
Description: as §1

[4] = test system: C. krusei (LUMC); experiment: MIC90 growth inhibition; format: cell-based, Candida krusei; details: RPMI 1640 one-fourth strength
Description: as §1

[5] = test system: C. tropicalis spp.; experiment: MIC90 growth inhibition; format: cell-based, Candida tropicalis; details: RPMI 1640 one-fourth strength
Description: as §1

[6] = test system: C. tropicalis (LUMC); experiment: MIC90 growth inhibition; format: cell-based, Candida tropicalis; details: RPMI 1640 one-fourth strength
Description: as §1

[7] = test system: C. tropicalis CMC-2041; experiment: MIC90 growth inhibition; format: cell-based, Candida tropicalis; details: RPMI 1640 one-fourth strength
Description: as §1

[8] = test system: C. tropicalis CBS-94; experiment: MIC90 growth inhibition; format: cell-based, Candida tropicalis; details: RPMI 1640 one-fourth strength
Description: as §1

[9] = test system: C. metapsilosis; experiment: MIC90 growth inhibition; format: cell-based, Candida metapsilosis; details: RPMI 1640 one-fourth strength
Description: as §1

[10] = test system: Absidia corymbifera; experiment: MIC90 growth inhibition; format: cell-based; details: RPMI 1640 one-fourth strength
Description: as §1

[11] = test system: Rhizopus spp; experiment: MIC90 growth inhibition; format: cell-based; details: RPMI 1640 one-fourth strength
Description: as §1

[12] = test system: Cryptococcus gattii; experiment: MIC90 growth inhibition; format: cell-based; details: RPMI 1640 one-fourth strength
Description: as §1

[13] = test system: Microsporum canis; experiment: MIC90 growth inhibition; format: cell-based; details: RPMI 1640 one-fourth strength
Description: as §1

[14] = test system: Aspergillus terreus; experiment: MIC90 growth inhibition; format: cell-based; details: RPMI 1640 one-fourth strength
Description: as §1

[15] = test system: Penicillium pinophilum; experiment: MIC90 growth inhibition; format: cell-based; details: RPMI 1640 one-fourth strength
Description: as §1

[16] = test system: Malassezia furfur CBS 1878; experiment: MIC90 growth inhibition; format: cell-based; details: RPMI 1640 one-fourth strength
Description: as §1

[17] = test system: Streptococcus mitis; experiment: MIC90 growth inhibition; format: cell-based; details: RPMI 1640 one-fourth strength
Description: as §1

[18] = test system: Penicillium italicum; experiment: MIC90 growth inhibition; format: cell-based; details: RPMI 1640 one-fourth strength
Description: as §1

[19] = test system: Trichophyton rubrum; experiment: MIC90 growth inhibition; format: cell-based; details: RPMI 1640 one-fourth strength
Description: as §1

[20] = test system: Aspergillus versicolor; experiment: MIC90 growth inhibition; format: cell-based; details: RPMI 1640 one-fourth strength
Description: as §1

[21] = test system: Dekkera bruxellensis; experiment: MIC90 growth inhibition; format: cell-based; details: RPMI 1640 one-fourth strength
Description: as §1

[22] = test system: Saccharomyces cerivisiae CMC-520; experiment: MIC90 growth inhibition; format: cell-based; details: RPMI 1640 one-fourth strength
Description: as §1

[23] = test system: Trichophyton interdigitale; experiment: MIC90 growth inhibition; format: cell-based; details: RPMI 1640 one-fourth strength
Description: as §1

[24] = test system: Moraxella catarrhalis; experiment: MIC90 growth inhibition; format: cell-based; details: RPMI 1640 one-fourth strength
Description: as §1

[25] = test system: Trichophyton violaceum; experiment: MIC90 growth inhibition; format: cell-based; details: RPMI 1640 one-fourth strength
Description: as §1

[26] = test system: Nannizia gypsea; experiment: MIC90 growth inhibition; format: cell-based; details: RPMI 1640 one-fourth strength
Description: as §1

[27] = test system: Microsporum gypseum; experiment: MIC90 growth inhibition; format: cell-based; details: RPMI 1640 one-fourth strength
Description: as §1

[28] = test system: Penicillium vermiculatum; experiment: MIC90 growth inhibition; format: cell-based; details: RPMI 1640 one-fourth strength
Description: as §1

[29] = test system: Malassezia furfur CBS-4172; experiment: MIC90 growth inhibition; format: cell-based; details: RPMI 1640 one-fourth strength
Description: as §1

[30] = test system: Vibrio cholerae; experiment: MIC90 growth inhibition; format: cell-based; details: RPMI 1640 one-fourth strength
Description: as §1

[31] = test system: Botrytis cinerea; experiment: MIC90 growth inhibition; format: cell-based; details: RPMI 1640 one-fourth strength
Description: as §1

[32] = test system: Helicobacter pylori; experiment: MIC90 growth inhibition; format: cell-based; details: RPMI 1640 one-fourth strength
Description: as §1

[33] = test system: Paracoccidioides brasiliensis; experiment: MIC90 growth inhibition; format: cell-based; details: RPMI 1640 one-fourth strength
Description: as §1

[34] = test system: Staphylococcus aureus 10649; experiment: MIC90 growth inhibition; format: cell-based; details: RPMI 1640 one-fourth strength
Description: as §1

[35] = test system: C. neoformans; experiment: MIC90 growth inhibition; format: cell-based; details: RPMI 1640 one-fourth strength
Description: as §1

[36] = test system: Malassezia furfur CBS-9372; experiment: MIC90 growth inhibition; format: cell-based; details: RPMI 1640 one-fourth strength
Description: as §1

[37] = test system: Aspergillus tamarii; experiment: MIC90 growth inhibition; format: cell-based; details: RPMI 1640 one-fourth strength
Description: as §1

[38] = test system: Trichophyton tonsurans; experiment: MIC90 growth inhibition; format: cell-based; details: RPMI 1640 one-fourth strength
Description: as §1

[39] = test system: Fonsecaea pedrosoi; experiment: MIC90 growth inhibition; format: cell-based; details: RPMI 1640 one-fourth strength
Description: as §1

[40] = test system: C. glabrata CBS-138; experiment: MIC90 growth inhibition; format: cell-based, Candida glabrata; details: RPMI 1640 one-fourth strength
Description: as §1

[41] = test system: C. glabrata (LUMC); experiment: MIC90 growth inhibition; format: cell-based, Candida glabrata; details: RPMI 1640 one-fourth strength
Description: as §1

[42] = test system: C. glabrata CMC-1933; experiment: MIC90 growth inhibition; format: cell-based, Candida glabrata; details: RPMI 1640 one-fourth strength
Description: as §1

## GRRRRSVQWCA [hLF1-11, Gly Arg Arg Arg Arg Ser Val Gln Trp Cys Ala]
[1]
  Inhibitory concentration IC50: IC50 = 231 μg/mL
[2]
  Inhibitory concentration MIC (MIC90): MIC = 10-25 μg/ml
[3]
  Inhibitory concentration MIC (MIC90): MIC = 25 μg/mL
[4]
  Inhibitory concentration MIC (MIC90): MIC = 25 μg/mL
[5]
  Inhibitory concentration MIC (MIC90): MIC = 12.5-100 μg/mL
[6]
  Inhibitory concentration MIC (MIC90): MIC = 25 μg/mL
[6]; second listing
  Inhibitory concentration MIC (MIC90): MIC = 25 μg/ml
[7]; C. tropicalis CMC-2041, second listing
  Inhibitory concentration MIC (MIC90): MIC = 50 μg/ml
[7]
  Inhibitory concentration MIC (MIC90): MIC = 50 μg/mL
[8]; C. tropicalis CBS-94, second listing
  Inhibitory concentration MIC (MIC90): MIC = 50 μg/ml
[8]
  Inhibitory concentration MIC (MIC90): MIC = 50 μg/mL
[9]
  Inhibitory concentration MIC (MIC90): MIC = 25 μg/mL
[10]
  Inhibitory concentration MIC (MIC90): MIC = 40 μg/ml
[11]
  Inhibitory concentration MIC (MIC90): MIC = 25 μg/mL
[12]
  Inhibitory concentration MIC (MIC90): MIC = 64 μg/mL
[13]
  Inhibitory concentration MIC (MIC90): MIC = 40 μg/ml
[14]
  Inhibitory concentration MIC (MIC90): MIC = 2.5-12.5 μg/ml
[15]
  Inhibitory concentration MIC (MIC90): MIC = 45 μg/ml
[16]
  Inhibitory concentration MIC (MIC90): MIC = 12.5-50 μg/mL
[17]
  Inhibitory concentration MIC (MIC90): MIC = 3.1 μg/ml
[18]
  Inhibitory concentration MIC (MIC90): MIC = 8 μM
[19]
  Inhibitory concentration MIC (MIC90): MIC = 13-60 μg/ml
[20]
  Inhibitory concentration MIC (MIC90): MIC = 10 μg/ml
[21]
  Inhibitory concentration MIC (MIC90): MIC = 3.75-20 μM
[22]
  Inhibitory concentration MIC (MIC90): MIC = 50 μg/ml
[23]
  Inhibitory concentration MIC (MIC90): MIC = 6.3-45 μg/ml
[24]
  Inhibitory concentration MIC (MIC90): MIC = 2 μg/ml
[25]
  Inhibitory concentration MIC (MIC90): MIC = 40 μg/ml
[26]
  Inhibitory concentration MIC (MIC90): MIC = 30 μg/ml
[27]
  Inhibitory concentration MIC (MIC90): MIC = 20-40 μg/ml
[28]
  Inhibitory concentration MIC (MIC90): MIC = 45 μg/ml
[29]
  Inhibitory concentration MIC (MIC90): MIC = 50 μg/ml
[30]
  Inhibitory concentration MIC (MIC90): MIC = 12.5 μg/ml
[31]
  Inhibitory concentration MIC (MIC90): MIC = 16 μM
[32]
  Inhibitory concentration MIC (MIC90): MIC = 12.5-50 μg/ml
[33]
  Inhibitory concentration MIC (MIC90): MIC = 0.63-1.25 μg/ml
[34]
  Inhibitory concentration MIC (MIC90): MIC = 1.6 μg/ml
[35]
  Inhibitory concentration MMC: MMC = 50 μg/ml
[36]
  Inhibitory concentration MIC (MIC90): MIC = 50 μg/ml
[37]
  Inhibitory concentration MIC (MIC90): MIC = 2.5-12.5 μg/ml
[38]
  Inhibitory concentration MIC (MIC90): MIC = 5-40 μg/ml
[39]
  Inhibitory concentration MIC (MIC90): MIC = 5 μg/ml
[40]
  Inhibitory concentration MIC (MIC90): MIC = 25 μg/mL
[41]
  Inhibitory concentration MIC (MIC90): MIC = 25 μg/mL
[42]
  Inhibitory concentration MIC (MIC90): MIC = 25 μg/mL

Source: patent US20250127863A1, “ANTIMICROBIAL PEPTIDE FOR ONYCHOMYCOSIS” (CBMR SCIENTIFIC NANOSCIENCE B.V., priority 2019, published 2025)
